Measured values as given in patent US20180311342A1, “IMMUNOSTIMULATING AGENT” (AJINOMOTO CO., INC., priority 2017, published 2018).

Key:
Type in all cases: in vivo, BALB/c mice
[1] = test system: anti-OVA-specific IgG2a subclass antibody; experiment: Adjuvant activity test: anti-OVA-specific IgG2a subclass antibody in serum of OVA-immunized mice (ELISA); conditions: after secondary immunization, serum 2 weeks later; OVA 5 μg + compound 0.256 μmol in 5% αCD-added saline (Addavax mixed with saline at 1:1), dorsal-subcutaneous; compared to OVA single administration group
[2] = test system: anti-OVA-specific IgE antibody; experiment: Allergy inducing activity test: anti-OVA-specific IgE antibody in serum of OVA-immunized mice (DS mouse IgE ELISA (OVA) kit); conditions: for anti-OVA-specific IgE antibody production: after secondary immunization, dorsal-subcutaneous; for allergy inducing activity as compared to Addavax: conclusion from IgE after secondary immunization, compound in 5% αCD-added saline
Procedure: 8-Week-old female BALB/c mice were divided into groups (N=6), and each group was primarily immunized by dorsal-subcutaneous administration of (1) ovalbumin (OVA) (5 μg) dissolved in saline as an antigen (OVA single administration group), (2) OVA 5 μg and Addavax™ (mixed with saline at 1:1) dissolved in saline (Addavax™ administration group) as positive control adjuvant, (3) OVA 5 μg and SZ137 0.256 μmol dissolved or dispersed in 5% α-cyclodextrin (hereinafter to be simply referred to as αCD)-added saline (SZ137 administration group), (4) OVA (5 μg) and SZ138 (0.256 μmol) dissolved or dispersed in 5% αCD-added saline (SZ138 administration group), (5) OVA (5 μg) and SZ142 (0.256 μmol) dissolved or dispersed in 5% αCD-added saline (SZ142 administration group), (6) OVA (5 μg) and SZ144 (0.256 μmol) dissolved or dispersed in 5% αCD-added saline (SZ144 administration group), (7) OVA (5 μg) and SZ145 (0.256 μmol) dissolved or dispersed in 5% αCD-added saline (SZ145 administration group), (8) OVA (5 μg) and SZ146 (0.256 μmol) dissolved or dispersed in 5% αCD-added saline (SZ146 administration group), (9) OVA (5 μg) and SZ147 (0.256 μmol) dissolved or dispersed in 5% αCD-added saline (SZ147 administration group), (10) OVA (5 μg) and SZ148 (0.256 μmol) dissolved or dispersed in 5% αCD-added saline (SZ148 administration group), each per mouse. Two week later, the secondary immunization was carried out by dorsal-subcutaneous administration of solutions or dispersions similar to those of the above-mentioned (1)-(10) again. Two weeks from the secondary immunization, the whole blood was extracted under anesthesia, and the obtained serum sample was measured for anti-OVA-specific IgG1 subclass antibody, anti-OVA-specific IgG2a subclass antibody, and anti-OVA-specific IgE antibody.
The measurement method of the anti-OVA-specific IgE antibody in Experimental Example 1 and the following Experimental Examples 2-5, 8-10 is as follows.
DS mouse IgE ELISA (OVA) kit manufactured by DS Pharma Biomedical Co., Ltd. was used. The protocol is briefly shown below.
The serum sample and a standard reagent for drawing an analytical curve are diluted with a buffer and, after stirring, left standing at room temperature for 10 min. The sample and the standard solution are added to a plate bound with an IgE capture antibody in advance and, after stirring, the mixture is left standing at room temperature for 60 min. The mixture is washed three times with wash, HRP-labeled OVA is added, and the mixture is left standing at room temperature for 30 min. The mixture is washed three times with wash, a substrate solution is added, and the mixture is left standing in dark at room temperature for 30 min. A reaction quenching liquid is added, the mixture is stirred, and the absorbance (OD Value=450 nm) is immediately measured.
The standard used is one attached to the kit, the standard curve is drawn from the measured OD Value, and the concentration is calculated. […]

[3] = test system: anti-OVA-specific IgG1 subclass antibody; experiment: Adjuvant activity test: anti-OVA-specific IgG1 subclass antibody in serum of OVA-immunized mice (ELISA); conditions: dorsal-subcutaneous, compared to OVA single administration group
[4] = test system: anti-OVA-specific IgG2a subclass antibody; experiment: Adjuvant activity test: anti-OVA-specific IgG2a subclass antibody in serum of OVA-immunized mice (ELISA); conditions: dorsal-subcutaneous, compared to OVA single administration group
[5] = OVA 5 μg + compound 0.256 μmol in 5% αCD-added saline, compared to Addavax administration group
[6] = OVA 5 μg + compound 0.256 μmol in 5% αCD-added saline (Addavax mixed with saline at 1:1), compared to OVA single administration group
[7] = Experimental Example 4: after secondary immunization, OVA 5 μg + compound 0.256 μmol dissolved in saline (no αCD)
[8] = after primary immunization, serum 2 weeks later, OVA 5 μg + compound 0.256 μmol in 5% αCD-added saline (Addavax mixed with saline at 1:1)

anti-OVA-specific IgE antibody production [2, 5]	SMILES	anti-OVA-specific IgG2a subclass antibody production [1]	allergy inducing activity as compared to Addavax [2]	anti-OVA-specific IgE antibody production [2, 6]	anti-OVA-specific IgG1 subclass antibody production [3, 7]	anti-OVA-specific IgG2a subclass antibody production [4, 7]	anti-OVA-specific IgG1 subclass antibody production [3, 8]	anti-OVA-specific IgG2a subclass antibody production [4, 8]
lower	CCCCCCCC/C=C/CCCCCCCC(=O)N[C@@H](CCCNC(=N)N)C(=O)NCCCCCCCCCCCC.Cl [SZ161, (E)-N-[(1S)-1-(dodecylcarbamoyl)-4-guanidino-butyl]octadeca-9-enamide hydrochloride]	significantly increased	allergy inducing activity equivalent to or not more than that of Addavax™	–	–	–	–	–
–	CCCCCCCCCCCCCCCCCCCCCC(=O)N[C@@H](CC(C)C)C(=O)NCCCCCCCCCCC [SZ142, N-[(1S)-3-methyl-1-(undecylcarbamoyl)butyl]docosanamide]	showed a tendency to increase	may have a lower allergy inducing activity	an increase in the anti-OVA-specific IgE antibody production was not observed	–	–	–	–
–	CCCCCCCCCCCCCCCC(=O)N[C@@H](CC(C)C)C(=O)NCCCCCCCCCCCC [SZ144, N-[(1S)-1-(dodecylcarbamoyl)-3-methyl-butyl]hexadecanamide]	showed a tendency to increase	may have a lower allergy inducing activity	an increase in the anti-OVA-specific IgE antibody production was not observed	–	–	–	–
lower	CCCCCCCCCCCCCCCCCCCCCC(=O)N[C@@H](CCCNC(=N)N)C(=O)NCCCCCCC.Cl [SZ163, N-[(1S)-4-guanidino-1-(heptylcarbamoyl)butyl]docosanamide hydrochloride]	tended to increase	allergy inducing activity equivalent to or not more than that of Addavax™	–	–	–	–	–
lower	CCCCCCCCCCCCCCCC(=O)N[C@@H](CCCNC(=N)N)C(=O)NCCCCCCCCCCCC.Cl [SZ111, N-[(1S)-1-(dodecylcarbamoyl)-4-guanidino-butyl]hexadecanamide hydrochloride]	significantly increased	may have a lower allergy inducing activity	did not increase significantly	significantly increased	significantly increased	–	–
–	CCCCCCCCCCCCCCCCCCCCCC(=O)N[C@@H](CCCNC(=N)N)C(=O)NCCCCCCCCCCCC.Cl [SZ138, N-[(1S)-1-(dodecylcarbamoyl)-4-guanidino-butyl]docosanamide hydrochloride]	showed a tendency to increase	may have a lower allergy inducing activity	an increase in the anti-OVA-specific IgE antibody production was not observed	–	–	–	–
lower	CCCCCCCCCCCCCCCCNC(=O)N[C@@H](CCCNC(=N)N)C(=O)NCCCCCC.Cl [SZ168, (2S)-5-guanidino-2-(hexadecylcarbamoylamino)-N-hexyl-pentanamide hydrochloride]	tended to increase	allergy inducing activity equivalent to or not more than that of Addavax™	–	–	–	–	–
–	CCCCCCCCCCCCCCCCCCCCCC(=O)NCC(C)(C)C(=O)NCCCCCCCCCCCC [SZ148, N-[3-(dodecylamino)-2,2-dimethyl-3-oxo-propyl]docosanamide]	showed a tendency to increase	may have a lower allergy inducing activity	an increase in the anti-OVA-specific IgE antibody production was not observed	–	–	–	–
lower	CCCCCCCCCCCCCCCCCCCCCC(=O)N[C@@H](CCCCNC(=N)N)C(=O)NCCCCCCCCCCCC.Cl [SZ166, N-[(1S)-1-(dodecylcarbamoyl)-5-guanidino-pentyl]docosanamide hydrochloride]	tended to increase	allergy inducing activity equivalent to or not more than that of Addavax™	–	–	–	–	–
–	CCCCCCCCCCCCCCCC(=O)N[C@@H](CCCCN)C(=O)NCCCCCCCCCCCC.Cl [SZ153, N-[(1S)-5-amino-1-(dodecylcarbamoyl)pentyl]hexadecanamide hydrochloride]	significantly increased	may have a lower allergy inducing activity	an increase in the anti-OVA-specific IgE antibody production was not observed	–	–	–	–
lower	CCCCCCCCCCCCCCCCCCCCCC(=O)N[C@@H](CCCCNC(C)=O)C(=O)NCCCCCCCCCCCC [SZ167, N-[(1S)-5-acetamide-1-(dodecylcarbamoyl)pentyl]docosanamide]	tended to increase	allergy inducing activity equivalent to or not more than that of Addavax™	–	–	–	–	–
–	CCCCCCCCCCCCCCCCNC(=O)N[C@H](CCCNC(=N)N)C(=O)NCCCCCCCCCCCC.Cl [SZ193, (2R)—N-dodecyl-5-guanidino-2-(hexadecylcarbamoylamino)pentanamide hydrochloride]	showed a tendency to increase	–	–	–	–	significant enhancement	significant enhancement
–	CCCCCCCCCCCCCCCCOC(=O)N[C@@H](CCCCN)C(=O)NCCCCCCCC.Cl [SZ188, hexadecyl N-[(1S)-5-amino-1-(octylcarbamoyl)pentyl]carbamate hydrochloride]	showed a tendency to increase	–	–	–	–	a tendency toward increase was found	a tendency toward increase was found
–	CCCCCCCCCCCCCCCCOC(=O)N[C@@H](CC(C)C)C(=O)NCCCCCCCC [SZ203, hexadecyl N-[(1S)-3-methyl-1-(octylcarbamoyl)butyl]carbamate]	tended to increase	–	–	–	–	tended to increase	Significant enhancement
–	CCCCCCCCCCCCCCCCCC(=O)N[C@H](CCCNC(=N)N)C(=O)NCCCCCCCCCCCC.Cl [SZ191, N-[(1R)-1-(dodecylcarbamoyl)-4-guanidino-butyl]octadecanamide hydrochloride]	significant enhancement	–	–	–	–	significant enhancement	significant enhancement
lower	CCCCCCCCCCCCCCCCCCCCCC(=O)N[C@@H](CCCN)C(=O)NCCCCCCCCCCCC.Cl [SZ165, N-[(1S)-4-amino-1-(dodecylcarbamoyl)butyl]docosanamide hydrochloride]	tended to increase	allergy inducing activity equivalent to or not more than that of Addavax™	–	–	–	–	–
